Measurements reported in patent US10914725B2, “Culture medium additive, culture medium composition, and method for culturing cells or tissue using same” (NISSAN CHEMICAL INDUSTRIES, LTD., priority 2015, dated 2021).
pIC50: −log10 of the molar value.

What was measured:
[1] = system: adenocarcinomic human alveolar basal epithelial cell line A549; test: CellTiter-Glo cell survival assay of anticancer agents (Experimental Example 8); assay type: cell-based; conditions: for pIC50: Homo sapiens, A549, cell survival assay by luminescence, read-out: 50% inhibitory concentration
Experimental: Adenocarcinomic human alveolar basal epithelial cell line A549 (manufactured by DS PHARMA BIOMEDICAL CO., LTD.) was suspended in the above-mentioned medium composition containing low-molecular agar at 11,000 cells/mL. The above-mentioned cell suspension was dispensed to the wells of a 96 well flat bottom ultra-low attachment surface microplate (manufactured by Corning Incorporated, #3474) at 90 μL per 1 well. The plate was stood in a CO2 incubator (37° C., 5% CO2) overnight. […] Successively, the plate was further cultured in a standing state in a CO2 incubator (37° C., 5% CO2) for 7 days. As a negative control, a medium composition containing 10 (v/v) % FBS alone in DMEM (manufactured by Wako Pure Chemical Industries, Ltd.) was prepared. […] A549 cells were also suspended in each of the negative control and comparison control medium compositions, the negative control was dispensed to a 96 well flat bottom attachment surface microplate (manufactured by Corning Incorporated, #3585) and the comparison control was dispensed to a 96 well flat bottom ultra-low attachment surface microplate (manufactured by Corning Incorporated, #3474). […] CellTiter-Glo Luminescent Cell Viability Assay (manufactured by Promega) (100 μL) was added to the low-molecular agar-containing culture medium and each cell culture medium of the negative control and comparison control, the mixture was stood for 10 min at room temperature, and the amount of luminescence was measured by a microplate reader (“FlexStation 3”, manufactured by Molecular Devices) and according to the protocol recommended by Promega. The amount of luminescence of the medium alone was subtracted, whereby the number of viable cells was measured.

[2] = system: adenocarcinomic human alveolar basal epithelial cell line A549; test: CellTiter-Glo cell survival assay of paclitaxel (Experimental Example 5); assay type: cell-based; conditions: for pIC50: Homo sapiens, A549, cell survival assay by fluorescence, read-out: paclitaxel 50% inhibitory concentration; for relative cell number (no anticancer agent = 1): 10 days
Experimental: As a negative control, a medium composition containing 10 (v/v) % FBS alone in DMEM (manufactured by Wako Pure Chemical Industries, Ltd.) was prepared. As a comparison control, in the same manner as in Experimental Example 3, a medium composition containing 10 (v/v) % FBS and 0.015 (w/v) % of deacylated gellan gum in DMEM (manufactured by Wako Pure Chemical Industries, Ltd.) was prepared. Paclitaxel was also added at the above-mentioned concentration to the negative control and comparison control medium compositions, A549 cells were suspended therein and the suspensions were dispensed. Successively, the plate was cultured in a standing state in a CO2 incubator (37° C., 5% CO2) for 10 days.
CellTiter-Glo Luminescent Cell Viability Assay (manufactured by Promega) (100 μL) was added to each cell culture medium of the negative control and comparison control, the mixture was stood for 10 min at room temperature, and the amount of luminescence was measured by a microplate reader (“FlexStation 3”, manufactured by Molecular Devices) and according to the protocol recommended by Promega. The amount of luminescence of the medium alone was subtracted, whereby the number of viable cells was measured. In addition, 50% inhibitory concentration (nM) of paclitaxel by the amount of luminescence was calculated with the number of viable cells when paclitaxel was not added as 0% inhibition rate.

CC(=O)O[C@H]1C(=O)[C@@]2(C)[C@H]([C@H](OC(=O)c3ccccc3)[C@]3(O)C[C@H](OC(=O)[C@H](O)[C@@H](NC(=O)c4ccccc4)c4ccccc4)C(C)=C1C3(C)C)[C@]1(OC(C)=O)CO[C@@H]1C[C@@H]2O [paclitaxel, Paclitaxel]
pIC50 ([1]; comparison control (0.015 (w/v)% deacylated gellan gum medium)): 8.35 | pIC50 ([1]; low-molecular agar-containing medium): 8.31 | pIC50 ([1]; negative control (DMEM, 10% FBS, attachment surface plate)): 8.39 | relative cell number (no anticancer agent = 100) ([1]; agent 0.001 μM, comparison control (0.015 (w/v)% deacylated gellan gum medium)): 99.9 | relative cell number (no anticancer agent = 100) ([1]; agent 0.001 μM, low-molecular agar-containing medium): 102.4 | relative cell number (no anticancer agent = 100) ([1]; agent 0.001 μM, negative control (DMEM, 10% FBS, attachment surface plate)): 100.1 | relative cell number (no anticancer agent = 100) ([1]; agent 0.01 μM, comparison control (0.015 (w/v)% deacylated gellan gum medium)): 23.5 | relative cell number (no anticancer agent = 100) ([1]; agent 0.01 μM, low-molecular agar-containing medium): 27 | relative cell number (no anticancer agent = 100) ([1]; agent 0.01 μM, negative control (DMEM, 10% FBS, attachment surface plate)): 18.8 | relative cell number (no anticancer agent = 100) ([1]; agent 0.1 μM, comparison control (0.015 (w/v)% deacylated gellan gum medium)): 10.8 | relative cell number (no anticancer agent = 100) ([1]; agent 0.1 μM, low-molecular agar-containing medium): 12.1 | relative cell number (no anticancer agent = 100) ([1]; agent 0.1 μM, negative control (DMEM, 10% FBS, attachment surface plate)): 5.5 | pIC50 ([2]; comparison control medium (0.015 (w/v)% deacylated gellan gum)): 8.54 | pIC50 ([2]; negative control medium (DMEM, 10% FBS alone)): 8.36 | relative cell number (no anticancer agent = 1) ([2]; paclitaxel 0.001 μM, comparison control medium (0.015 (w/v)% deacylated gellan gum)): 0.842 | relative cell number (no anticancer agent = 1) ([2]; paclitaxel 0.001 μM, negative control medium (DMEM, 10% FBS alone)): 1.004 | relative cell number (no anticancer agent = 1) ([2]; paclitaxel 0.01 μM, comparison control medium (0.015 (w/v)% deacylated gellan gum)): 0.156 | relative cell number (no anticancer agent = 1) ([2]; paclitaxel 0.01 μM, negative control medium (DMEM, 10% FBS alone)): 0.249
